According to patent EP4755878A1, “PHOTOCHROMIC COMPOUND, PHENOL DERIVATIVE, CURABLE COMPOSITION, OPTICAL ARTICLE, LENS, AND EYEGLASS” (TOKUYAMA CORPORATION, priority 2023, dated 2025):

Columns and labels:
[1] = Photochromic properties of photochromic laminate (plastic lens) made by coating method; format: physicochemical; settings: for Color developing density at 23°C: absorbance difference after 240 seconds irradiation at 23°C; for Color developing density at 35°C: absorbance difference after 240 seconds irradiation at 35°C; for Maximum absorption wavelength: after color development, second absorption wavelength (lower line of pair)
Text: First, the photochromic compound obtained in Example 1 above, a photoinitiator, and polymerizable compounds were mixed to obtain a curable composition.
As the polymerizable compounds, a blend of the following radically-polymerizable monomers in combination was used.
• Polyethylene glycol dimethacrylate (average molecular weight: 736): 42 parts by mass • Polyethylene glycol dimethacrylate (average molecular weight: 536): 12 parts by mass • Trimethylolpropane trimethacrylate: 38 parts by mass • γ-Methacryloyloxypropyltrimethoxysilane: 2 parts by mass • Glycidyl methacrylate: 1 part by mass.
Note that in the curable composition, the photochromic compound obtained in Example 1 above was added to be 0.25 mmol taking the total amount of the radically-polymerizable monomers as 100 g. The following were used as additives.
(stabilizer, Irganox 245): 1 part by mass Bis(1,2,2,6,6-pentamethyl-4-piperidyl) sebacate: 3 parts by mass Leveling agent from DuPont Toray Specialty Materials K.K. (L7001): 0.1 parts by mass.
Note that the above-mentioned additives are described with blending ratios taking a total of the radically-polymerizable monomers as 100 parts by mass.
Using this curable composition, a photochromic laminate was obtained by a lamination process described below with the polymerization described below being carried out.
First, a thiourethane plastic lens with a center thickness of 2 mm and a refractive index of 1.60 was prepared as an optical substrate. Note that the thiourethane plastic lens had been alkaline-etched beforehand in a 10% aqueous sodium hydroxide solution at 50°C for 5 minutes, and then thoroughly washed with distilled water.
A spin coater (1H-DX2, manufactured by MIKASA CO., LTD) was used to coat a surface of the above-mentioned plastic lens with a moisture-curable primer (product name: TR-SC-P, manufactured by Tokuyama Corporation) at a rotation speed of 70 rpm for 15 seconds, followed by at 1000 rpm for 10 seconds. Then, about 2 g of the photochromic curable composition obtained as above was spin-coated at a rotation speed of 60 rpm for 40 seconds, followed by at 600 rpm for 10 to 20 seconds so as to achieve a photochromic coating layer with a film thickness of 40 µm.
The lens having the surface coated with the photochromic curable composition (photochromic coating layer) was irradiated with light for 90 seconds in a nitrogen gas atmosphere using a metal halide lamp with an output of 200 mW/cm^2 to cure the coating film. The coating was then further heated at 110°C for 1 hour to produce a photochromic laminate with a photochromic layer.
Photochromic laminates were produced using the photochromic compounds obtained in Examples 2 to 19 in the same manner as in Example 20.
Photochromic laminates were obtained in the same manner as in Example 20 using photochromic compounds represented by the following formulas (A) to (F). [drawing 143] [drawing 144] [drawing 145] [drawing 146] [drawing 147] [drawing 148] [drawing 149] [drawing 150]
The resulting photochromic laminates were evaluated by the methods described below.
Table 3 summarizes the results of Examples 20, 32, and 34, and Comparative Examples 1 to 6, and Table 4 summarizes the results of Examples 21 to 31, 33, and 35 to 38. The relationship between the fading half-life at 23°C and the color development ratio at the higher temperature of the photochromic laminates according to Examples and Comparative Examples are shown in a graph in FIG. 1.
Photochromic laminates were formed using the photochromic compound obtained in Examples 61 to 71 in the same manner as in Example 20.

[2] = Photochromic properties of photochromic cured product made by kneading method; format: physicochemical; settings: for Maximum absorption wavelength: 1 mm, after color development, second absorption wavelength (lower line of pair); for Color developing density at 23°C: absorbance difference after 240 seconds irradiation at 23°C; for Color developing density at 35°C: absorbance difference after 240 seconds irradiation at 35°C
Text: First, the photochromic compound obtained in Example 1, additives, and polymerizable compounds were mixed to obtain a curable composition. As the polymerizable compounds, a blend of the following polymerizable monomers in combination was used. • 1,3-Bis(isocyanatomethyl)cyclohexane: 36.7 parts by mass Pentaerythritol tetrakis(3-mercaptopropionate): 39.4 parts by mass • Polyoxyethylene polyoxypropylene lauryl ether (WONDERSURF 140 from Aoki Oil Industrial Co., Ltd.): 17.4 parts by mass 1-Decanethiol: 2.8 parts by mass • RX-1 prepared according to the method described in Patent Document 12: 3.8 parts by mass Note that in the curable composition, the photochromic compound was added to be 0.106 mmol taking the total amount of the polymerizable monomers as 100 g.
The following additives were used. Dimethyltin dichloride: 0.05 parts by mass • Irganox 245 from BASF Japan Ltd.: 0.1 parts by mass • 2-Ethylhexyl 4-methoxycinnamate: 0.6 parts by mass
The prepared curable composition was sufficiently degassed, and then injected into a glass mold provided with a gap of 1 mm, and the curable composition was polymerized via casting polymerization. […] After the polymerization, the cured product was removed from the glass mold, to obtain photochromic cured product having a thickness of 1 mm. The resulting photochromic cured product was evaluated in the same manner as in Example 23.
(Examples 51 to 60, and Comparative Examples 11 to 14) Photochromic cured products were formed using the photochromic compound shown in Table 6 in the same manner as in Example 50.

[3] = Photochromic properties of photochromic layer (binder sheet) made by binder method; settings: for Color developing density at 23°C: absorbance difference after 240 seconds irradiation at 23°C; for Color developing density at 35°C: absorbance difference after 240 seconds irradiation at 35°C; for Maximum absorption wavelength: after color development, second absorption wavelength (lower line of pair)
Method: This is the maximum absorption wavelength after color development determined by a spectrophotometer manufactured by Otsuka Electronics Co., Ltd. (instantaneous multichannel photo detector MCPD3000) and was used as an index of a color tone upon color development.
This is a difference between an absorbance {ε(240)} after irradiation with light at the above-mentioned maximum absorption wavelength at 23°C for 240 seconds and an absorbance ε(0) when not irradiated with light, and was used as an index of a color developing density. The higher this value is, the better photochromic property is.
This is a difference between an absorbance {ε(240)} after irradiation with light at first and second absorption wavelengths at 35°C for 240 seconds and an absorbance ε(0) when not irradiated with light, and was used as an index of a color developing density. The higher this value is, the better photochromic property is.
Color developing density at 35°C (A35) /color developing density at 23°C (A23) × 100(%). The higher this value is, the smaller the difference in color developing density between the higher temperature and the lower temperature is, and the smaller the temperature dependence is.
This is the period of time required for the absorbance at a maximum absorption wavelength of a sample to decrease to 1/2 of {ε(240)-ε(0)}, when light irradiation is stopped after the sample had been irradiated with light at 23°C for 240 seconds, and was used as an index of a color fading rate. The shorter this period of time is, the higher the color fading rate is.
A binder sheet was made according to the following method. […] As the first and second optical sheets, polycarbonate sheets with a thickness of 400 µm were used.
Note that the photochromic compound was added to be 0.25 mmol relative to 100 parts by mass of the terminally non-reactive urethaneurea resin.

Compound	Color developing density at 23°C ([1]; first absorption wavelength)	Color developing density at 23°C ([1]; second absorption wavelength)	Color developing density at 35°C ([1]; first absorption wavelength)	Color developing density at 35°C ([1]; second absorption wavelength)	Maximum absorption wavelength [1] [nm]	Maximum absorption wavelength [2] [nm]	Color developing density at 23°C ([2]; first absorption wavelength)	Color developing density at 23°C ([2]; second absorption wavelength)	Color developing density at 35°C ([2]; first absorption wavelength)	Color developing density at 35°C ([2]; second absorption wavelength)	Color developing density at 23°C ([3]; first absorption wavelength)	Color developing density at 23°C ([3]; second absorption wavelength)	Color developing density at 35°C ([3]; first absorption wavelength)	Color developing density at 35°C ([3]; second absorption wavelength)	Maximum absorption wavelength [3] [nm]
CCCOc1ccc(C2(c3ccc(OC)cc3)C=Cc3c4c(c5cc6c(cc5c3O2)OC(C)(C)S6)-c2ccc(N3CCCc5ccccc53)cc2C4(CCCOC)CCCOC)cc1 (stereo not shown) [Formula (7-4)]	1.30 -	0.71 -	0.90 -	0.49 -	622	625	1.35 -	0.72 -	0.95 -	0.50 -	1.33 -	0.72 -	0.89 -	0.49 -	622
COc1ccc(C2(c3ccc(OC)cc3)C=Cc3c4c(c5ccc(OC)cc5c3O2)-c2ccc(N3CCOc5ccccc53)cc2C4(C)C)cc1 [Formula (13-2)]	0.87 -	1.02 -	0.63 -	0.75 -	608	616	0.90 -	1.04 -	0.66 -	0.78 -	0.90 -	1.04 -	0.63 -	0.74 -	608
CCCCOc1ccc(C2(c3ccc(OCCCC)cc3)C=Cc3c4c(c5ccc(OC)cc5c3O2)-c2ccc(C)cc2C4(C)C)cc1 [Formula (B), reference compound]	0.69 -	0.96 -	0.48 -	0.65 -	579	586	0.76 -	0.98 -	0.53 -	0.69 -	0.75 -	0.98 -	0.50 -	0.67 -	580
CCCCOc1ccc(C2(c3ccc(OC)cc3)C=Cc3c4c(c5ccc(C)cc5c3O2)-c2ccc(N3CCOc5ccccc53)cc2C4(CCCC(F)(F)F)CCCC(F)(F)F)cc1 (stereo not shown) [Formula (3-3)]	0.91 -	1.33 -	0.69 -	1.02 -	581	588	0.94 -	1.36 -	0.73 -	1.06 -	0.94 -	1.34 -	0.68 -	1.00 -	580
COc1ccc(C2(c3ccc(OC)cc3)C=Cc3c4c(c5ccc(OC)cc5c3O2)-c2ccc(N3CCCCC3)cc2C4(C)C)cc1 [Formula (D), reference compound]	0.78 -	1.14 -	0.57 -	0.86 -	617	625	0.80 -	1.18 -	0.62 -	0.94 -	0.80 -	1.17 -	0.58 -	0.88 -	617
COc1ccc(C2(c3ccc(OC)cc3)C=Cc3c4c(c5ccc(OC)cc5c3O2)-c2ccc(N(C)c3ccccc3)cc2C4(C)C)cc1 [Formula (1-7)]	0.86 -	1.06 -	0.64 -	0.81 -	616	621	0.89 -	1.09 -	0.67 -	0.84 -	0.88 -	1.08 -	0.63 -	0.80 -	613
COCC1(COC)c2cc(N(C)c3ccccc3)ccc2-c2c1c1c(c3ccccc23)OC(c2ccc(OC)cc2)(c2ccc(OC)c(F)c2)C=C1 (stereo not shown) [Formula (16-3)]	0.53 -	0.89 -	0.36 -	0.61 -	593	599	0.56 -	0.92 -	0.38 -	0.65 -	0.55 -	0.90 -	0.37 -	0.61 -	595
CCCCOCCC1(CCOCCCC)c2cc(N(c3ccccc3)c3ccccc3)ccc2-c2c1c1c(c3cc(OC)c(N(C)c4ccc(C(F)(F)F)cc4)cc23)OC(c2ccc(OC)cc2)(c2ccc(OCCC)cc2)C=C1 (stereo not shown) [Formula (65-2)]	0.85 -	0.77 -	0.57 -	0.53 -	623	–	–	–	–	–	–	–	–	–	–
CCC1(CC)c2cc(N(C)c3ccccc3)ccc2-c2c1c1c(c3cc(OC)c(-c4ccc(OC)cc4OC)cc23)OC(c2ccc(OC)cc2)(c2ccc(N3CCOCC3)cc2)C=C1 (stereo not shown) [Formula (67-2)]	0.84 -	1.00 -	0.60 -	0.72 -	639	–	–	–	–	–	–	–	–	–	–
